Measured values from US20210045385A1, “PYRIDAZINONE-SUBSTITUTED KETOXIMES AS HERBICIDES” (FMC Corporation, priority 2018, published 2021).

How the values were obtained:
Format in all cases: in vivo
[1] = tested on: barnyardgrass (Echinochloa crus-galli); assay: Test A postemergence, visual plant response rating; conditions: for Barnyardgrass plant response rating (0 to 100 scale): 500 g ai/ha, postemergence, 0 is no effect, 100 is complete control; for Barnyardgrass plant response rating: Postemergence, 125 g ai/ha, 0 to 100 scale (0 no effect, 100 complete control)
Summary of the method: (§1)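 Preemergence: seeds in loam/sand blend given directed soil spray of compound in non-phytotoxic solvent with surfactant. Postemergence: plants 2–10 cm, one- to two-leaf stage, sprayed with same formulation. Visual injury rated vs untreated controls after ~10 days in greenhouse, 0 (no effect) to 100 (complete control).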

corn (Zea mays) = assay: Test A postemergence, visual plant response rating; conditions: for Corn plant response rating (0 to 100 scale): 500 g ai/ha, postemergence, 0 is no effect, 100 is complete control; for Corn plant response rating: Postemergence, 125 g ai/ha, 0 to 100 scale (0 no effect, 100 complete control)
Summary of the method: as §1

[2] = tested on: galium (catchweed bedstraw, Galium aparine); assay: Test A postemergence, visual plant response rating; conditions: for Galium plant response rating (0 to 100 scale): 500 g ai/ha, postemergence, 0 is no effect, 100 is complete control; for Galium plant response rating: Postemergence, 125 g ai/ha, 0 to 100 scale (0 no effect, 100 complete control)
Summary of the method: as §1

[3] = tested on: foxtail, giant (giant foxtail, Setaria faberii); assay: Test A postemergence, visual plant response rating; conditions: for Foxtail, Giant plant response rating (0 to 100 scale): 500 g ai/ha, postemergence, 0 is no effect, 100 is complete control; for Foxtail, Giant plant response rating: Postemergence, 125 g ai/ha, 0 to 100 scale (0 no effect, 100 complete control)
Summary of the method: as §1

[4] = tested on: Italian ryegrass (Lolium multiflorum); assay: Test A postemergence, visual plant response rating; conditions: for Ryegrass, Italian plant response rating (0 to 100 scale): 500 g ai/ha, postemergence, 0 is no effect, 100 is complete control; for Ryegrass, Italian plant response rating: Postemergence, 125 g ai/ha, 0 to 100 scale (0 no effect, 100 complete control)
Summary of the method: as §1

[5] = tested on: wheat (Triticum aestivum); assay: Test A postemergence, visual plant response rating; conditions: for Wheat plant response rating (0 to 100 scale): 500 g ai/ha, postemergence, 0 is no effect, 100 is complete control; for Wheat plant response rating: Postemergence, 125 g ai/ha, 0 to 100 scale (0 no effect, 100 complete control)
Summary of the method: as §1

kochia (Kochia scoparia) [6] = assay: Test A postemergence, visual plant response rating; conditions: for Kochia plant response rating (0 to 100 scale): 500 g ai/ha, postemergence, 0 is no effect, 100 is complete control; for Kochia plant response rating: Postemergence, 125 g ai/ha, 0 to 100 scale (0 no effect, 100 complete control)
Summary of the method: as §1

[7] = tested on: ragweed (common ragweed, Ambrosia elatior); assay: Test A postemergence, visual plant response rating; conditions: for Ragweed plant response rating (0 to 100 scale): 500 g ai/ha, postemergence, 0 is no effect, 100 is complete control; for Ragweed plant response rating: Postemergence, 125 g ai/ha, 0 to 100 scale (0 no effect, 100 complete control)
Summary of the method: as §1

[8] = tested on: blackgrass (Alopecurus myosuroides); assay: Test A postemergence, visual plant response rating; conditions: for Blackgrass plant response rating (0 to 100 scale): 500 g ai/ha, postemergence, 0 is no effect, 100 is complete control; for Blackgrass plant response rating: Postemergence, 125 g ai/ha, 0 to 100 scale (0 no effect, 100 complete control)
Summary of the method: as §1

[9] = tested on: pigweed (Amaranthus retroflexus); assay: Test A postemergence, visual plant response rating; conditions: for Pigweed plant response rating (0 to 100 scale): 500 g ai/ha, postemergence, 0 is no effect, 100 is complete control; for Pigweed plant response rating: Postemergence, 125 g ai/ha, 0 to 100 scale (0 no effect, 100 complete control)
Summary of the method: as §1

[10] = tested on: barnyardgrass (Echinochloa crus-galli); assay: Test B flooded paddy test, visual plant response rating; conditions: 250 g ai/ha, Flood, applied to paddy water, 2-leaf stage, evaluated after 13 to 15 days
Summary of the method: (§2)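 Compounds added straight into paddy water of pots flooded to 3 cm, with 2-leaf-stage plants of the four species; water level held throughout.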

rice (Oryza sativa) = assay: as above; conditions: 250 g ai/ha, Flood, applied to paddy water, 2-leaf stage, evaluated after 13 to 15 days
Summary of the method: as §2

[11] = tested on: sedge, umbrella (small-flower umbrella sedge, Cyperus difformis); assay: as above; conditions: 250 g ai/ha, Flood, applied to paddy water, 2-leaf stage, evaluated after 13 to 15 days
Summary of the method: as §2

[12] = tested on: ducksalad (Heteranhera limosa); assay: as above; conditions: 250 g ai/ha, Flood, applied to paddy water, 2-leaf stage, evaluated after 13 to 15 days
Summary of the method: as §2

[13] = tested on: barnyardgrass (Echinochloa crus-galli); assay: Test A preemergence, visual plant response rating; conditions: for Barnyardgrass plant response rating: 125 g ai/ha, preemergence, 0 to 100 scale, 0 no effect, 100 complete control; for Barnyardgrass plant response rating (0 to 100 scale): 500 g ai/ha Preemergence, approx. 10 days
Summary of the method: as §1

[14] = tested on: foxtail, giant (giant foxtail, Setaria faberii); assay: Test A preemergence, visual plant response rating; conditions: for Foxtail, Giant plant response rating: 125 g ai/ha, preemergence, 0 to 100 scale, 0 no effect, 100 complete control; for Foxtail, Giant plant response rating (0 to 100 scale): 500 g ai/ha Preemergence, approx. 10 days
Summary of the method: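 Compared with untreated controls, treated plants received a visual injury score on a 0–100 scale around 10 days after application. The compound, in a non-phytotoxic solvent with surfactant, was given as a preemergence soil spray or postemergence at the one- to two-leaf stage.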

[15] = tested on: Italian ryegrass (Lolium multiflorum); assay: Test A preemergence, visual plant response rating; conditions: for Ryegrass, Italian plant response rating: 125 g ai/ha, preemergence, 0 to 100 scale, 0 no effect, 100 complete control; for Ryegrass, Italian plant response rating (0 to 100 scale): 500 g ai/ha Preemergence, approx. 10 days
Summary of the method: as §1

kochia (Kochia scoparia) [16] = assay: Test A preemergence, visual plant response rating; conditions: for Kochia plant response rating: 125 g ai/ha, preemergence, 0 to 100 scale, 0 no effect, 100 complete control; for Kochia plant response rating (0 to 100 scale): 500 g ai/ha Preemergence, approx. 10 days
Summary of the method: as §1

[17] = tested on: ragweed (common ragweed, Ambrosia elatior); assay: Test A preemergence, visual plant response rating; conditions: for Ragweed plant response rating: 125 g ai/ha, preemergence, 0 to 100 scale, 0 no effect, 100 complete control; for Ragweed plant response rating (0 to 100 scale): 500 g ai/ha Preemergence, approx. 10 days
Summary of the method: as §1

[18] = tested on: pigweed (Amaranthus retroflexus); assay: Test A preemergence, visual plant response rating; conditions: for Pigweed plant response rating: 125 g ai/ha, preemergence, 0 to 100 scale, 0 no effect, 100 complete control; for Pigweed plant response rating (0 to 100 scale): 500 g ai/ha Preemergence, approx. 10 days
Summary of the method: as §1

SMILES	Barnyardgrass plant response rating (0 to 100 scale) [1]	Barnyardgrass plant response rating [1]	Corn plant response rating (0 to 100 scale) (corn (Zea mays))	Corn plant response rating (corn (Zea mays))	Galium plant response rating (0 to 100 scale) [2]	Galium plant response rating [2]	Foxtail, Giant plant response rating (0 to 100 scale) [3]	Foxtail, Giant plant response rating [3]	Ryegrass, Italian plant response rating (0 to 100 scale) [4]	Ryegrass, Italian plant response rating [4]	Wheat plant response rating (0 to 100 scale) [5]	Wheat plant response rating [5]	Kochia plant response rating (0 to 100 scale) (kochia (Kochia scoparia) [6])	Kochia plant response rating (kochia (Kochia scoparia) [6])	Ragweed plant response rating (0 to 100 scale) [7]	Ragweed plant response rating [7]	Blackgrass plant response rating (0 to 100 scale) [8]	Blackgrass plant response rating [8]	Pigweed plant response rating (0 to 100 scale) [9]	Pigweed plant response rating [9]	other results
C=CCON=C(c1c(O)c(C)nn(C)c1=O)c1cc(Br)cc2ccccc12 [Compound 114]	90	80	80	20	100	100	90	90	90	80	50	0	40	30	100	90	90	80	90	70	Plant response rating, Barnyardgrass (0 to 100 scale, 0 is no effect, 100 is complete control) [10]: 70; Plant response rating, Rice (0 to 100 scale, 0 is no effect, 100 is complete control) (rice (Oryza sativa)): 35; Plant response rating, Sedge, Umbrella (0 to 100 scale, 0 is no effect, 100 is complete control) [11]: 85; Plant response rating, Ducksalad (0 to 100 scale, 0 is no effect, 100 is complete control) [12]: 85; Barnyardgrass plant response rating [13]: 90; Barnyardgrass plant response rating (0 to 100 scale) [13]: 100; Foxtail, Giant plant response rating [14]: 100; Foxtail, Giant plant response rating (0 to 100 scale) [14]: 100; Ryegrass, Italian plant response rating [15]: 70; Ryegrass, Italian plant response rating (0 to 100 scale) [15]: 100; Kochia plant response rating (kochia (Kochia scoparia) [16]): 10; Kochia plant response rating (0 to 100 scale) (kochia (Kochia scoparia) [16]): 20; Ragweed plant response rating [17]: 80; Ragweed plant response rating (0 to 100 scale) [17]: 90; Pigweed plant response rating [18]: 10; Pigweed plant response rating (0 to 100 scale) [18]: 80
CO/N=C(\c1ccccc1C(C)C)c1c(O)c(C)nn(C)c1=O [Compound 94]	30	20	20	10	70	60	70	40	80	30	40	0	60	20	70	50	80	20	80	50	Plant response rating, Barnyardgrass (0 to 100 scale, 0 is no effect, 100 is complete control) [10]: 0; Plant response rating, Rice (0 to 100 scale, 0 is no effect, 100 is complete control) (rice (Oryza sativa)): 0; Plant response rating, Sedge, Umbrella (0 to 100 scale, 0 is no effect, 100 is complete control) [11]: 0; Plant response rating, Ducksalad (0 to 100 scale, 0 is no effect, 100 is complete control) [12]: 0; Barnyardgrass plant response rating [13]: 10; Barnyardgrass plant response rating (0 to 100 scale) [13]: 50; Foxtail, Giant plant response rating [14]: 20; Foxtail, Giant plant response rating (0 to 100 scale) [14]: 60; Ryegrass, Italian plant response rating [15]: 50; Ryegrass, Italian plant response rating (0 to 100 scale) [15]: 90; Kochia plant response rating (kochia (Kochia scoparia) [16]): 0; Kochia plant response rating (0 to 100 scale) (kochia (Kochia scoparia) [16]): 10; Ragweed plant response rating [17]: 10; Ragweed plant response rating (0 to 100 scale) [17]: 70; Pigweed plant response rating [18]: 10; Pigweed plant response rating (0 to 100 scale) [18]: 70
CO/N=C(\c1ccc(C)o1)c1c(O)c(C)nn(C)c1=O [Compound 53]	70	10	30	0	0	0	90	10	90	20	0	0	0	0	0	0	40	10	0	0	Plant response rating, Barnyardgrass (0 to 100 scale, 0 is no effect, 100 is complete control) [10]: 0; Plant response rating, Rice (0 to 100 scale, 0 is no effect, 100 is complete control) (rice (Oryza sativa)): 0; Plant response rating, Sedge, Umbrella (0 to 100 scale, 0 is no effect, 100 is complete control) [11]: 0; Plant response rating, Ducksalad (0 to 100 scale, 0 is no effect, 100 is complete control) [12]: 0; Barnyardgrass plant response rating [13]: 0; Barnyardgrass plant response rating (0 to 100 scale) [13]: 0; Foxtail, Giant plant response rating [14]: 0; Foxtail, Giant plant response rating (0 to 100 scale) [14]: 0; Ryegrass, Italian plant response rating [15]: 0; Ryegrass, Italian plant response rating (0 to 100 scale) [15]: 0; Kochia plant response rating (kochia (Kochia scoparia) [16]): 0; Kochia plant response rating (0 to 100 scale) (kochia (Kochia scoparia) [16]): 0; Ragweed plant response rating [17]: 0; Ragweed plant response rating (0 to 100 scale) [17]: 0; Pigweed plant response rating [18]: 0; Pigweed plant response rating (0 to 100 scale) [18]: 0
